Measured values taken from PMC9409351, “Differential Ganglioside and Cholesterol Depletion by Various Cyclodextrin Derivatives and Their Effect on Synaptosomal Glutamate Release” (International Journal of Molecular Sciences, 2022).
pIC50: −log10 of the molar value.

Assays:
[1] = system: rat cerebral synaptosomes; test: Membrane integrity by LDH release assay; format: cell-based; conditions: for pIC50: 40 min exposure, LDH release as percentage of total LDH (Triton X-100 lysis); for Maximal effect (plateau) of LDH release: percentage of total LDH content
Description: Adult male Wistar rats purchased from Toxi-Coop Ltd. (Budapest, Hungary) were used in the experiments. Cerebral synaptosomes were prepared according to Modi and co-workers with the following modifications. Animals were decapitated and the brain was removed rapidly. Isotonic sucrose buffer (0.32 M sucrose, 4 mM HEPES-NaOH, pH 7.4) was used to homogenize the cerebrum with a Potter S Homogenizer (B. Braun, Melsungen, Germany) with 15 strokes at 1000 rpm. The homogenate was centrifuged (1500× g, 10 min, 4 °C) and the pellet was resuspended in sucrose buffer and centrifuged with the same parameters again. The two supernatants were combined and centrifuged (20,000× g, 10 min, 4 °C) to pellet the crude synaptosomes. […] Synaptosomes were stored frozen using cryopreservation buffer and the slow freezing method to preserve their physiological state and integrity. Briefly, synaptosome pellets were resuspended in isotonic sucrose buffer containing 10% DMSO (v/v) and 10% FBS (v/v). To slow down the freezing process at −80 °C, synaptosomes were placed in a 3 cm thick-walled polystyrene box with a lid. Synaptosomes were stored at −80 °C until use. Immediately prior to the experiments, synaptosomes were rapidly thawed in a 37 °C water bath and pelleted by centrifugation (20,000× g, 10 min, 4 °C) to remove the cryopreservation buffer. […] For all types of experiments, except for the glutamate release measurements, vehicle-treated (control) and CD-treated synaptosomes were incubated in 500 μL HEPES-glucose buffer with or without CDs, respectively, for 40 min at 37 °C. […] After incubation, the synaptosomes were centrifuged (20,000× g, 5 min, 4 °C) and used immediately for further analysis. A slightly different incubation method used in the glutamate release measurements is described in the corresponding section. Across all types of experiments, osmolarities of the CD solutions were adjusted and they were between 290 and 310 mOsm. At least three parallel measurements were carried out. The membrane integrity of the synaptosomes was measured by the CytoTox-ONE Homogeneous Membrane Integrity Assay (Promega, Madison, WI, USA) with minor modifications. The assay measures the release of the lactate dehydrogenase (LDH) enzyme from synaptosomes with damaged membranes. […] Both the supernatant and lysis samples were diluted 10-fold. The LDH activity was then assessed according to the manufacturer’s instructions and the fluorescence was measured by a Varioskan LUX multimode microplate reader (Thermo Fisher Scientific) at 530/590 nm.

[2] = system: rat cerebral synaptosomes; test: Resazurin reduction viability assay; format: cell-based; conditions: for pIC50 / Concentration with significant decrease in viability / metabolic activity: 40 min exposure; for pIC50: percentage of vehicle-treated synaptosomes; for Concentration with significant decrease in viability / metabolic activity: resazurin reduction
Description: Adult male Wistar rats purchased from Toxi-Coop Ltd. (Budapest, Hungary) were used in the experiments. Cerebral synaptosomes were prepared according to Modi and co-workers with the following modifications. Animals were decapitated and the brain was removed rapidly. Isotonic sucrose buffer (0.32 M sucrose, 4 mM HEPES-NaOH, pH 7.4) was used to homogenize the cerebrum with a Potter S Homogenizer (B. Braun, Melsungen, Germany) with 15 strokes at 1000 rpm. The homogenate was centrifuged (1500× g, 10 min, 4 °C) and the pellet was resuspended in sucrose buffer and centrifuged with the same parameters again. The two supernatants were combined and centrifuged (20,000× g, 10 min, 4 °C) to pellet the crude synaptosomes. […] Synaptosomes were stored frozen using cryopreservation buffer and the slow freezing method to preserve their physiological state and integrity. Briefly, synaptosome pellets were resuspended in isotonic sucrose buffer containing 10% DMSO (v/v) and 10% FBS (v/v). To slow down the freezing process at −80 °C, synaptosomes were placed in a 3 cm thick-walled polystyrene box with a lid. Synaptosomes were stored at −80 °C until use. Immediately prior to the experiments, synaptosomes were rapidly thawed in a 37 °C water bath and pelleted by centrifugation (20,000× g, 10 min, 4 °C) to remove the cryopreservation buffer. […] For all types of experiments, except for the glutamate release measurements, vehicle-treated (control) and CD-treated synaptosomes were incubated in 500 μL HEPES-glucose buffer with or without CDs, respectively, for 40 min at 37 °C. […] After incubation, the synaptosomes were centrifuged (20,000× g, 5 min, 4 °C) and used immediately for further analysis. A slightly different incubation method used in the glutamate release measurements is described in the corresponding section. Across all types of experiments, osmolarities of the CD solutions were adjusted and they were between 290 and 310 mOsm. At least three parallel measurements were carried out. Viability of the rat cerebral synaptosomes was measured by the Resazurin Cell Viability Kit (Cell Signaling Technology Inc., Danvers, MA, USA) with minor modifications. The assay was based on the reduction in the nonfluorescent resazurin to highly fluorescent resorufin by intracellular dehydrogenase enzymes. Briefly, after CD treatments, 2 mg of the synaptosomes were centrifuged (20,000× g, 5 min, 4 °C) and the supernatant was discarded. […] After 25 min of incubation, synaptosomes were centrifuged (20,000× g, 5 min, 4 °C). Fluorescence of the supernatant was measured with a Varioskan LUX multimode microplate reader (Thermo Fisher Scientific) at 530/590 nm. Viability of the CD-treated synaptosomes was calculated as the percentage of vehicle-treated control synaptosomes.

Row | Compound | pIC50 [1] | Maximal effect (plateau) of LDH release [1] | Viability at 60 mM ([2]; 60 mM) | pIC50 [2] | Concentration with significant decrease in viability / metabolic activity [2] | pIC50 ([1]; Rattus norvegicus, 40 min) | pIC50 ([2]; Rattus norvegicus, 40 min) | Concentration with influence on membrane integrity ([1]; LDH release, highest tested concentration)
1 | COC[C@H]1O[C@@H]2O[C@H]3[C@H](O)[C@@H](OC)[C@@H](O[C@H]4[C@H](O)[C@@H](OC)[C@@H](O[C@H]5[C@H](O)[C@@H](OC)[C@@H](O[C@H]6[C@H](O)[C@@H](OC)[C@@H](O[C@H]7[C@H](O)[C@@H](OC)[C@@H](O[C@H]8[C@H](O)[C@@H](OC)[C@@H](O[C@H]1[C@H](O)[C@H]2OC)O[C@@H]8COC)O[C@@H]7COC)O[C@@H]6COC)O[C@@H]5COC)O[C@@H]4COC)O[C@@H]3COC [DIMEB, heptakis(2,6-di-O-methyl)-beta-cyclodextrin] | 1.74 | about 60% | total loss of viability | 1.58 | higher than 10 mM |  |  | 
2 | CC(O)COC[C@H]1O[C@@H]2O[C@H]3[C@H](O)[C@@H](O)[C@@H](O[C@H]4[C@H](O)[C@@H](O)[C@@H](O[C@H]5[C@H](O)[C@@H](O)[C@@H](O[C@H]6[C@H](O)[C@@H](O)[C@@H](O[C@H]7[C@H](O)[C@@H](O)[C@@H](O[C@H]8[C@H](O)[C@@H](O)[C@@H](O[C@H]1[C@H](O)[C@H]2O)O[C@@H]8COCC(C)O)O[C@@H]7COCC(C)O)O[C@@H]6COCC(C)O)O[C@@H]5COCC(C)O)O[C@@H]4COCC(C)O)O[C@@H]3COCC(C)O (stereo partly drawn) [HPBCD, (2-hydroxypropyl)-beta-cyclodextrin] |  | 43% |  |  | 100000 µM | 1.51 | < 1.00 | 
3 | (2-hydroxypropyl)-alpha-cyclodextrin [HPACD] | < 1.00 |  |  |  |  |  |  | 
4 | randomly methylated alpha-cyclodextrin [RAMEA] | < 1.22 |  |  | ~1.05 | 100000 µM |  |  | 100000 µM
